The assay relates to Tumorart P 388 (Leukämie). Briefly: Survival of mice bearing P 388 leukemia (NCI protocol 1200), T/C. The format is in vivo, Maus. The note with it: for response vs control in vivo at 50 mg/kg / response vs control in vivo at 100 mg/kg / response vs control in vivo at 200 mg/kg / response vs control in vivo at 25 mg/kg: Mus musculus; for Testergebnis in % T/C: repeat experiment; for durchschnittliche Lebensdauer der Testgruppe: 200 mg/kg per single dose; for Verlängerungsrate T/C: 9 injections. An excerpt: Die nachfolgenden Versuche wurden durchgeführt nach Testvorschriften des National Cancer Institute Bethesda, Maryland 200014, veröffentlicht in Cancer Chemotherapy Reports" Part. 3, September 1972, Vol. 3, Nr. 2. Als Wirksubstanz wurde 1,3-Diglycidyl-benzimidazolon des i vorstehenden Beispiels 1 verwendet. Die Substanz wurde als wäßrige, 1%ige Injektionslösung unmittelbar vor der Applikation frisch hergestellt.
Bei Mäusen wurde gemäß Protokoll 1200 (Seite 91, c.) die Tumorart P 388 (Leukämie) i.p. mit 10^6 Zellen/Maus gesetzt. Die unbehandelten Tiere hatten eine mittlere überlebensdauer von 9,9 Tagen.
Es wird der Wirkstoff appliziert. Der Wirkstoff wird dabei in 9.Gaben in unterschiedlichen Versuchsreihen einmal zu je 200 mg/kg und in einer anderen zu 100 mg/kg und in einer dritten Versuchsreihe zu je 50 mg/kg verabreicht. In beiden Fällen wird eine signifikante Verlängerung der Lebensdauer der behandelten Testtiere gegenüber der Kontrollgruppe der nicht behandelten Tiere erzielt. […] Bei der Testgruppe mit der Dosis von 100 mg/kg beträgt die durchschnittliche Lebenserwartung der Versuchstiere 18 Tage, T/C 181 %. Die Gruppe mit der Dosis 50 mg/kg hatte eine durchschnittliche Lebenserwartung von 15,3 Tagen, T/C 154 %. […]

The mark [1] stands for this setting: P388, 50 mg/kg per single dose, first series, unit inferred, read-out: Testergebnis T/C (T/C-Wert).
[2] abbreviates: P388, 100 mg/kg per single dose, first series, unit inferred, read-out: Testergebnis T/C (T/C-Wert).
[3] abbreviates: P388, 200 mg/kg per single dose, first series, unit inferred, read-out: Testergebnis T/C (T/C-Wert).
Where [4] appears, read: P388, read-out: Testergebnis T/C (T/C-Wert), 25 mg/kg, second series, unit inferred.
[5] abbreviates: P388, read-out: Testergebnis T/C (T/C-Wert), 50 mg/kg per single dose, first series, unit inferred.
Setting [6] is: P388, read-out: Testergebnis T/C (T/C-Wert), 50 mg/kg, second series, unit inferred.
Setting [7] is: P388, read-out: Testergebnis T/C (T/C-Wert), 100 mg/kg per single dose, first series, unit inferred.
The mark [8] stands for this setting: P388, read-out: Testergebnis T/C (T/C-Wert), 100 mg/kg, second series, unit inferred.
Where [9] appears, read: P388, read-out: Testergebnis T/C (T/C-Wert), 200 mg/kg per single dose, first series, unit inferred.
[10] abbreviates: P388, read-out: Testergebnis T/C (T/C-Wert), 200 mg/kg, second series, unit inferred.
Where [11] appears, read: P388, 100 mg/kg per single dose, 9 doses, first test series, read-out: Verlängerungsrate T/C (Testergebnis in % T/C).
Where [12] appears, read: P388, 200 mg/kg per single dose, 9 doses, first test series, read-out: Verlängerungsrate T/C (Testergebnis in % T/C).
[13] abbreviates: P388, 50 mg/kg per single dose, 9 doses, first test series, read-out: Verlängerungsrate T/C (Testergebnis in % T/C).
[14] abbreviates: 50 mg/kg per single dose, 9 doses.
[15] abbreviates: 100 mg/kg per single dose, 9 doses.
[16] abbreviates: P388, read-out: Verlängerungsrate T/C (Testergebnis in % T/C), 50 mg/kg per single dose, 9 doses, first test series.
[17] abbreviates: P388, read-out: Verlängerungsrate T/C (Testergebnis in % T/C), 100 mg/kg per single dose, 9 doses, first test series.

Like-named read-outs stand apart in the source and are kept apart here.

For `O=c1c(I)cn(CC2CO2)c(=O)n1CC1CO1` (stereo not drawn) [Diglycidyl-5-joduracil, N,N'-Diglycidyl-5-ioduracil], under setting [1], the response vs control in vivo at 50 mg/kg was found to be 124%. In addition, the response vs control in vivo at 100 mg/kg under setting [2] came to 166%. In addition, the response vs control in vivo at 200 mg/kg under setting [3] stood at 189%.
For the compound `O=C1N(CC2CO2)CCN1CC1CO1` (stereo not drawn) [Beispiel 18 a), Diglycidylethylenharnstcff], the response vs control in vivo at 25 mg/kg under setting [4] is 119%. Besides, the response vs control in vivo at 50 mg/kg came to 130% under setting [5] and 142% under setting [6]. For the same compound, the response vs control in vivo at 100 mg/kg amounted to 155% under setting [7] and 158% under setting [8]. The response vs control in vivo at 200 mg/kg worked out at 206% under setting [9] and 213% under setting [10].
For `O=c1ccn(CC2CO2)c(=O)n1Cn1c(=O)ccn(CC2CO2)c1=O` (stereo not drawn) [[drawing] the 18th table r17], under setting [1], the response vs control in vivo at 50 mg/kg worked out at 115%. Further, the response vs control in vivo at 100 mg/kg under setting [2] was 139%. Further, the response vs control in vivo at 200 mg/kg under setting [3] came out at 186%.
Regarding `O=C1N(CC2CO2)C(=O)C(c2ccccc2)(c2ccccc2)N1CC1CO1` (stereo not drawn) [R5 C6H5-R6 C6H5-, Diglycidyl-diphenylhydantoin], the “Testergebnis in % T/C” value is, setting by setting: (100 mg/kg) 136%; (200 mg/kg) 149%. Besides, under setting [11], the response vs control in vivo at 100 mg/kg worked out at 122%. Moreover, the response vs control in vivo at 200 mg/kg under setting [12] turned out to be 130%.
Consider `COc1ccc2c(c1)n(CC1CO1)c(=O)n2CC1CO1` (stereo not drawn) [R2 -H R3 -O-CH3, N,N-Diglycidyl-5-methoxy-benzimidazolon], for which the response vs control in vivo at 50 mg/kg under setting [13] was found to be 175%. Besides, the response vs control in vivo at 100 mg/kg under setting [11] stood at 225%.
In the case of `O=c1n(CC2CO2)c2ccccc2n1CC1CO1` (stereo not drawn) [Beispiel 1, N,N'-Digylcidyl-Benzimidazolon], the “Testergebnis in % T/C” value runs as follows: (25 mg/kg) 133%; (50 mg/kg) 136%; (100 mg/kg) 161%; (200 mg/kg) 166%. For the same compound, the “durchschnittliche Lebenserwartung der Versuchstiere” value by setting is: under setting [14], 15,3 Tage; under setting [15], 18 Tage. For the same compound, the “durchschnittliche Lebensdauer der Testgruppe” value (9 doses) is given as 20 Tage. Moreover, under setting [13], the response vs control in vivo at 50 mg/kg was 154%. Besides, under setting [11], the response vs control in vivo at 100 mg/kg amounted to 181%. Moreover, under setting [12], the response vs control in vivo at 200 mg/kg came to 202%.
On to `O=c1c(Br)cn(CC2CO2)c(=O)n1CC1CO1` (stereo not drawn) [Diglycidyl-5-bromuracil, N,N'-Diglycidyl-5-bromuracil], for which the response vs control in vivo at 50 mg/kg under setting [1] was found to be 173%. The response vs control in vivo at 100 mg/kg under setting [2] is 193%.
With `O=c1ccn(CC2CO2)c(=O)n1CC1CO1` (stereo not drawn) [Beispiel 13, N,N'-Diglycidyluracil], under setting [15], the “durchschnittliche Lebenserwartung der Versuchstiere” value is 16,0 Tage. The “Testergebnis in % T/C” value by setting is: (100 mg/kg) 152%; (200 mg/kg) 198%. The “durchschnittliche Lebensdauer der Testgruppe” value (9 doses) amounted to 24 Tage. The response vs control in vivo at 25 mg/kg (P388, 25 mg/kg, second series, unit inferred, read-out: Testergebnis T/C (T/C-Wert)) was found to be 114%. Besides, the response vs control in vivo at 50 mg/kg runs as follows: under setting [1], 131%; (P388, 50 mg/kg, second series, unit inferred, read-out: Testergebnis T/C (T/C-Wert)) 124%. Moreover, the response vs control in vivo at 100 mg/kg is 153% under setting [11]; 156% under setting [2]; 152% (P388, 100 mg/kg, second series, unit inferred, read-out: Testergebnis T/C (T/C-Wert)). Further, the response vs control in vivo at 200 mg/kg is, setting by setting: under setting [12], 230%; under setting [3], 230%; (P388, 200 mg/kg, second series, unit inferred, read-out: Testergebnis T/C (T/C-Wert)) 198%.
With `CC1(C)C(=O)N(CC2CO2)C(=O)N1CC1CO1` (stereo not drawn) [1,3-Diglycidyl-5,5-dimethylhydantoin], the “Testergebnis in % T/C” value (25 mg/kg) is 136%, the “Testergebnis in % T/C” value (50 mg/kg) is reported as 151% and the “Testergebnis in % T/C” value (100 mg/kg) is on record as 239%. The “durchschnittliche Lebenserwartung der Versuchstiere” value is, setting by setting: under setting [14], 15,7 Tage; under setting [15], 22 Tage. The response vs control in vivo at 50 mg/kg under setting [13] amounted to 158%. Moreover, the response vs control in vivo at 100 mg/kg under setting [11] came to 222%. For the setting “animal test at 100 mg/kg and 50 mg/kg”, the “erhöhte Lebenserwartung gegenüber einer Kontrollgruppe nicht behandelter Versuchstiere” value is reported as at most 220%.
`O=c1n(CC2CO2)c2ccc(Cl)cc2n1CC1CO1` (stereo not drawn) [R2 -H R3 -Cl, N,N'-Digylcidyl-5-chlor-benzimidazolon]: the “Testergebnis in % T/C” value runs as follows: (25 mg/kg) 156%; (50 mg/kg) 181%; (100 mg/kg) 92%; (12,5 mg/kg) 145%. Further, the response vs control in vivo at 50 mg/kg under setting [16] was 191%. Also, under setting [17], the response vs control in vivo at 100 mg/kg worked out at 234%.
Consider `O=c1n(CC2CO2)c2cc(Cl)c(Cl)cc2n1CC1CO1` (stereo not drawn) [R2 -Cl R3 -Cl, N,N-Diglycidyl-5,6-di-chlor-benzimidazolon], for which the response vs control in vivo at 50 mg/kg under setting [13] worked out at 158%. Also, the response vs control in vivo at 100 mg/kg under setting [11] was 120%.
On to `O=c1c2c(ncn2CC2CO2)n(CC2CO2)c(=O)n1CC1CO1` (stereo not drawn) [Beispiel 23, 1,3,7-Triglycidyl-xanthin], for which, under setting [16], the response vs control in vivo at 50 mg/kg was 147%. Besides, the response vs control in vivo at 100 mg/kg under setting [17] was found to be 147%. The response vs control in vivo at 200 mg/kg (P388, read-out: Verlängerungsrate T/C (Testergebnis in % T/C), 200 mg/kg per single dose, 9 doses, first test series) was determined as 173%.
`CCC1(c2ccccc2)C(=O)N(CC2CO2)C(=O)N1CC1CO1` (stereo not drawn) [R5 CH3-CH2-R6 C6H5-, Diglycidyl-5-phenyl-5-ethylhydantoin]: the “Testergebnis in % T/C” value (50 mg/kg) is 111%, the “Testergebnis in % T/C” value (100 mg/kg) was found to be 146% and the “Testergebnis in % T/C” value (200 mg/kg) is given as 188%. Besides, the response vs control in vivo at 50 mg/kg under setting [13] stood at 125%. Further, the response vs control in vivo at 100 mg/kg under setting [11] was 156%. Under setting [12], the response vs control in vivo at 200 mg/kg was found to be 222%.
As for `O=c1c2cc3c(=O)n(CC4CO4)c(=O)c3cc2c(=O)n1CC1CO1` (stereo not drawn) [Beispiel 16, N,N^I-Diglycidylbenzoltetracarbonsäure-(1,2,4,5,)diimid], the “Verlängerungsrate T/C” value was 156% (6,25 mg/kg per single dose) and 200% (12,5 mg/kg per single dose).
As to `CC1(c2ccccc2)C(=O)N(CC2CO2)C(=O)N1CC1CO1` (stereo not drawn) [R5 CH3-R6 C6H5-, Diglycidyl-5-phenyl-5-methyl-hydantoin], under setting [13], the response vs control in vivo at 50 mg/kg came out at 100%. The response vs control in vivo at 100 mg/kg under setting [11] is 160%. Also, the response vs control in vivo at 200 mg/kg under setting [12] stood at 250%.
On to `CC(C)CC1C(=O)N(CC2CO2)C(=O)N(CC2CO2)C1=O` (stereo not drawn) [Beispiel 11, 1,3-Diglycidyl-5-isobutylbarbitursäure], for which the response vs control in vivo at 25 mg/kg under setting [4] was determined as 129%. For the same compound, the response vs control in vivo at 50 mg/kg under setting [5] was found to be 133% and the response vs control in vivo at 50 mg/kg under setting [6] amounted to 158%. The response vs control in vivo at 100 mg/kg worked out at 158% under setting [7] and 184% under setting [8]. The response vs control in vivo at 200 mg/kg reads like this: under setting [9], 194%; under setting [10], 252%.
As for `O=c1c(F)cn(CC2CO2)c(=O)n1CC1CO1` (stereo not drawn) [Diglycidyl-5-floururacil, N,N'-Diglycidyl-5-fluoruracil], the response vs control in vivo at 50 mg/kg under setting [1] came out at 179%. In addition, the response vs control in vivo at 100 mg/kg under setting [2] is 300%.
`CC1(C)C(=O)N(CC2CO2)C(=O)N1CN1C(=O)N(CC2CO2)C(=O)C1(C)C` (stereo not drawn) [[drawing] r20]: the response vs control in vivo at 200 mg/kg under setting [12] amounted to 153%.

(Values after EP0033503A2, “Medicaments with cytostatic activity and use of cyclic compounds, in which the heterocyclic N-ring atoms are substituted by several glycidyl groups, in pharmaceutical compositions” (Henkel Kommanditgesellschaft auf Aktien, priority 1980, dated 1981).)
